# According to patent EP0345629A2, “Condensed diazepinones, process for their preparation and medicaments containing them” (Dr. Karl Thomae GmbH, priority 1988, dated 1989):
# Where two headings read alike, the source gives them in different places.
# Experiments:
# [1] = tested on: durch McN-A-343 verursachte Blutdruckanstieg (M,); test: M1/M2 selectivity in the rat: inhibition of blood pressure rise caused by McN-A-343; type: in vivo, männliche THOM-Ratten; details: for ED50: iv, 5 min, rat, i.v., 5 min after injection, dose reducing the blood pressure rise after 0,3 mg/kg McN-A-343 i.v. (M1) by 50 %, read-out: -log ED50 Blutdruck (converted)
# Source text: (§1) 1. M1-/M2-Selektivität an der Ratte
# (§2) Die Dosis der Substanzen, die entweder die vagale Bradykardie (M2) oder den Blutdruckanstieg (M,) um 50% verminderte, wurde graphisch ermittelt. Ergebnisse siehe Tabelle 11.
# [2] = tested on: vagale Bradykardie (M2); test: M1/M2 selectivity in the rat: inhibition of bradycardia evoked by electrical vagus stimulation; type: in vivo, männliche THOM-Ratten; details: iv; for ED50: 5 min
# Source text: as §1, §2
# [3] = tested on: Acetylcholinwirkung auf Herzfrequenz; test: Inhibition of the acetylcholine effect on heart rate in the anaesthetised guinea pig; type: in vivo, Meerschweinchen; details: for ED50: Cavia porcellus, 5 min, anaesthetised guinea pig, 10 µg/kg Acetylcholin 5 min after test substance, heart rate (ECG)
# Description: (§3) 3. Hemmung der Acetylcholinwirkung auf Blase, Bronchien und Herzfrequenz des Meerschweinchens
# (§4) Am narkotisierten Meerschweinchen wurden 5 Minuten nach Gabe der Prüfsubstanz 10 µg/kg Acetylcholin sowohl intravenös als auch gleichzeitig intraarteriell injiziert. Dabei wurde die Herzfrequenz durch extrakorporale Ableitung des EKG, der Ausatemwiderstand nach Konzett-Rößler und die Kontraktion der freigelegten Harnblase direkt registriert. Für die Hemmung der Acetylcholinwirkung an den untersuchten Organen wurden Dosis-Wirkungskurven aufgenommen und daraus -log EDso-Werte bestimmt. Ergebnisse siehe Tabelle III.
# [4] = tested on: Acetylcholinwirkung auf Blase; test: Inhibition of the acetylcholine effect on bladder contraction in the anaesthetised guinea pig; type: in vivo, Meerschweinchen; details: for ED50: Cavia porcellus, 5 min, anaesthetised guinea pig, 10 µg/kg Acetylcholin 5 min after test substance, bladder contraction, read-out: -log ED50 Blase (converted)
# Description: as §3, §4
# [5] = tested on: Acetylcholinwirkung auf Bronchien; test: Inhibition of the acetylcholine effect on bronchi (expiratory resistance, Konzett-Rößler) in the anaesthetised guinea pig; type: in vivo, Meerschweinchen; details: for ED50: Cavia porcellus, 5 min, anaesthetised guinea pig, 10 µg/kg Acetylcholin 5 min after test substance, expiratory resistance, read-out: -log ED50 Bronchien (converted)
# Description: as §3, §4
# [6] = tested on: Speichelsekretion; test: Inhibition of pilocarpine-induced salivary secretion in the rat; type: in vivo, männliche THOM-Ratten; details: iv; urethane-anaesthetised rat, i.v.; 2 mg/kg Pilocarpin s.c.; dose reducing saliva volume by 50 %; read-out: -log ED50 Salivationshemmung (converted)
# Description: 2. Speichelsekretionshemmende Wirkung an der Ratte
# Nach Lavy und Mulder (Arch. int. Pharmacodyn. 178, 437-445, (1969)) erhielten mit 1,2 g/kg Urethan narkotisierte männliche THOM-Ratten steigende Dosen der Substanz i.v.. Die Speichelsekretion wurde durch s.c. Gabe von 2 mg/kg Pilocarpin ausgelöst. Der Speichel wurde mit Fließpapier aufgesaugt, die von ihm eingenommene Fläche alle 5 Minuten planimetrisch bestimmt. Die Dosis der Substanz, die das Speichelvolumen um 50% verminderte, wurde graphisch ermittelt. Ergebnisse siehe Tabelle 11.
# [7] = Solubility in water (remark in the synthesis example); type: physicochemical
# [8] = rat, i.v., 5 min after injection, dose reducing vagal bradycardia (M2) by 50 %, read-out: -log ED50 Herz (converted)
SMILES,ED50 [1] [µmol/kg],"ED50 [2, 8] [µmol/kg]",ED50 [3] [µmol/kg],ED50 [6] [µmol/kg],Löslichkeit in Wasser [7],ED50 [4] [µmol/kg],ED50 [5] [µmol/kg],other results
"CN1C2CCC1CC(OC(=O)C(CO)c1ccccc1)C2 (racemic) [F, Atropin, reference compound]",–,–,–,–,–,–,–,"-log ED50 Blutdruck ([1]; in vivo): 7,34 Mkg^-1; -log ED50 Herz ([2]; in vivo): 7,94 Mkg^-1; -log ED50 Herz ([3]; in vivo): 7,70 Molkg^-1; -log ED50 Blase ([4]; in vivo): 7,03 Molkg^-1; -log ED50 Bronchien ([5]; in vivo): 7,96 Molkg^-1"
"CCN(CC)CC1COCCN1CCCC(=O)N1c2ccccc2C(=O)Nc2cccnc21 (stereo not drawn) [A, 11-[4-[3-[(Diethylamino)methyl]-4-morpholinyl]-1-oxobutyl]-5,11-dihydro-6H-pyrido[2,3-b][1,4]-benzodiazepin-6-on]",0.55,0.0513,0.0282,1.1,leicht löslich in Wasser,1,0.0708,–
"CN(C)CCC1CCCCN1CCCC(=O)N1c2ccccc2C(=O)Nc2cccnc21 (stereo not drawn) [Beispiel 4, 5,11-Dihydro-11-[4-[2-[2-(dimethylamino)ethyl]-1-piperidinyl]-1-oxobutyl]-6H-pyrido[2,3-b][1,4]benzodiazepin-6-on]",–,–,–,–,löslich in Wasser,–,–,–
"CN1CCN(CC(=O)N2c3ccccc3C(=O)Nc3cccnc32)CC1 [E, 5,11-Dihydro-11-[(4-methyl-1-piperazinyl)acetyl]-6H-pyrido[2,3-b][1,4]benzodiazepin-6-on, reference compound]",–,–,–,0.603,–,–,–,–
"CCN(CC)CC1CCCCN1CCCC(=O)N1c2ccc(Br)cc2C(=O)Nc2cccnc21 (stereo not drawn) [Beispiel 7, 8-Brom-11-[4-[2-[(diethylamirio)methyl]-1-piperidinyl]-1-oxobutyl]-5,11-dihydro-6H-pyrido[2,3-b][1,4]-benzodiazepin-6-on]",–,–,–,–,in Wasser schwer lösliches,–,–,–
"CCN(CC)CC1CCCCN1CCCC(=O)N1c2cc(C)ccc2C(=O)Nc2cccnc21 (stereo not drawn) [B, 11-[4-[2-[(Diethylamino)methyl]-1-piperidinyl]-1-oxobutyl]-5,11-dihydro-9-methyl-6H-pyrido[2,3-b][1,4]benzodiazepin-6-on]",0.501,0.0617,0.0708,1.12,–,0.759,0.151,–
"O=C1Nc2cccnc2N(C(=O)CCCN2CCCCC2CN2CCCC2)c2ccccc21 (stereo not drawn) [C, 5, 11-Dihydro-11-[4-[2-[(1-pyrrolidinyl)methyl]-1-piperidinyl]-1-oxobutyl]-6H-pyrido[2,3-b][1,4]-benzodiazepin-6-on]",0.219,0.0468,0.0275,1.66,–,0.316,0.0513,–
"CCN(CC)CC1CCCCN1CC(=O)N1c2ccccc2C(=O)Nc2cccnc21 (stereo not drawn) [D, 11-[[2-[(Diethylamino)methyl]-1-piperidinyl]acetyl]-5,11-dihydro-6H-pyrido[2,3-b][1,4]-benzodiazepin-6-on, reference compound]",2.34,–,–,10,–,–,–,"ED50 ([2]; Rattus norvegicus, read-out: -log ED50 Herz): 0.38 µmol/kg"
